Values quoted from earlier work, collected in patent publication EP3331513B1, “HYDROALCOHOLIC SOLUTIONS COLOURED WITH CHLORHEXIDINE, METHODS FOR THE PRODUCTION THEREOF, AND USES OF SAME” (Université Claude Bernard Lyon I, priority 2015, dated 2017).

solubilité dans les alcools (alcools primaires en C2 et C3, notamment éthanol): assez soluble | solubilité dans l'eau (eau): miscible à l'eau
SMILES: [H]/N=C(\N/C(=N/[H])NCCCCCCNC(=N)NC(=N)Nc1ccc(Cl)cc1)Nc1ccc(Cl)cc1 [digluconate de chlorhexidine]
